From ChEMBL document CHEMBL1201862, “PubChem BioAssay data set” (2004)
Calls of active or inactive are those of the source.

Columns and labels:
[1] = target: Cytochrome P450 3A4 (Homo sapiens, UniProt P08684); details: Potency;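 further: confirmatory qHTS run detecting inhibitors and substrates of CYP3A4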
[2] = target: Nonstructural protein 1 (Influenza A virus, UniProt Q194T2); assay type: functional, Influenza A virus (A/California/07/2009(H1N1))
[3] = target: T1, Replicative DNA helicase DnaB (Mycobacterium tuberculosis, UniProt P9WMR3); assay: DnaB intein splicing inhibitors, dose response, biochemical, cell-free fluorescence (AID 449749); assay type: functional
T1 sequence (P9WMR3 whole entry): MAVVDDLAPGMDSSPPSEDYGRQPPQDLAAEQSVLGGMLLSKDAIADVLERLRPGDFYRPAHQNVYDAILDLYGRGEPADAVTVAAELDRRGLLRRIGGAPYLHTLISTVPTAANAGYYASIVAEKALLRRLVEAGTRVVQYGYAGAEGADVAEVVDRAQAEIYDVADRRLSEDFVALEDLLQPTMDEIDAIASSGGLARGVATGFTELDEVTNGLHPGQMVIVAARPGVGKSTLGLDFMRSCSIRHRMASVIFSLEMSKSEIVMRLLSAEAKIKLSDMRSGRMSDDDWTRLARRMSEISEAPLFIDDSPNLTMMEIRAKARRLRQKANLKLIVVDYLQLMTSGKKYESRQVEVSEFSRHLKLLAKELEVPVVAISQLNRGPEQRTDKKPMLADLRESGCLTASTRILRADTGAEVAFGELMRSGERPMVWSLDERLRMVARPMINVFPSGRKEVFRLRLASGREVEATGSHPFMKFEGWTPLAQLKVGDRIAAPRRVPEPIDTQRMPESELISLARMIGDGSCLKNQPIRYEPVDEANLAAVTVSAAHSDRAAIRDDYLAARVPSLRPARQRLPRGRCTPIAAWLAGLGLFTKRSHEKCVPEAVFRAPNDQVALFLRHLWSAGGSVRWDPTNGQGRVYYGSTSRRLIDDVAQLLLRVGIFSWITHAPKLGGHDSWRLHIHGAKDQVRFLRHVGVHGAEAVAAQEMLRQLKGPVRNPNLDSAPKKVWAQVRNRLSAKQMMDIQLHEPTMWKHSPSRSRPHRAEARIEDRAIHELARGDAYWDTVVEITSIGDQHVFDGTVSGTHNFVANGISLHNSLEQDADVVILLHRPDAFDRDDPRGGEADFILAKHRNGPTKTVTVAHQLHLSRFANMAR

[4] = target: T2, Protein RecA (Mycobacterium tuberculosis, UniProt P9WHJ3); assay: Fluorescence Cell-Free Homogeneous Dose Retest to Identify Inhibitors of RecA-Intein Splicing Activity. [Related pubchem assays (depositor defined):AID2097, AID2223, AID489010, AID492950]; assay type: functional
T2 sequence (P9WHJ3 whole entry): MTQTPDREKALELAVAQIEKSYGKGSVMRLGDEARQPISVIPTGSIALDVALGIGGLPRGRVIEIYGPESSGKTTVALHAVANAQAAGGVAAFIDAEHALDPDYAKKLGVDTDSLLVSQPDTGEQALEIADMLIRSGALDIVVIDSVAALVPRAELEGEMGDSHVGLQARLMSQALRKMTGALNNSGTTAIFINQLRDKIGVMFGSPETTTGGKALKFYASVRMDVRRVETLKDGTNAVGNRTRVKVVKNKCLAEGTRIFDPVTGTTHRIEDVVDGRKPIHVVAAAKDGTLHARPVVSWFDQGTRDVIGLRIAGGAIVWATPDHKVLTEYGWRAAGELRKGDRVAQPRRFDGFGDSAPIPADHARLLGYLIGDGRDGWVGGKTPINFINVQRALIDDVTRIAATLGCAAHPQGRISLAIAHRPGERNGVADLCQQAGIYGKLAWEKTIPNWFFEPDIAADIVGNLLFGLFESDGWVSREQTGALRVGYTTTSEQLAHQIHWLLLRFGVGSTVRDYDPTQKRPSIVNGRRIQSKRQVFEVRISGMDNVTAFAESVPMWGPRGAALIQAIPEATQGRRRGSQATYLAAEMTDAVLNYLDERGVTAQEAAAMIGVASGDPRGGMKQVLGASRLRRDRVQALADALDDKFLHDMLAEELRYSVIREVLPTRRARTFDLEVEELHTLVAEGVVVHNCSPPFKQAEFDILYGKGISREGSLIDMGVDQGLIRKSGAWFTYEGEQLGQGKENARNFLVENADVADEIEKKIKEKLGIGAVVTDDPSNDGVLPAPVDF

[5] = target: T3, Rac GTPase-activating protein 1 (Homo sapiens, UniProt Q9H0H5); assay: MgcRacGAP GTPase-activating activity inhibitors, confirmation, biochemical, ADP Hunter fluorescence, primary and confirmatory (AID 624330); assay type: functional
T3 sequence (Q9H0H5 whole entry): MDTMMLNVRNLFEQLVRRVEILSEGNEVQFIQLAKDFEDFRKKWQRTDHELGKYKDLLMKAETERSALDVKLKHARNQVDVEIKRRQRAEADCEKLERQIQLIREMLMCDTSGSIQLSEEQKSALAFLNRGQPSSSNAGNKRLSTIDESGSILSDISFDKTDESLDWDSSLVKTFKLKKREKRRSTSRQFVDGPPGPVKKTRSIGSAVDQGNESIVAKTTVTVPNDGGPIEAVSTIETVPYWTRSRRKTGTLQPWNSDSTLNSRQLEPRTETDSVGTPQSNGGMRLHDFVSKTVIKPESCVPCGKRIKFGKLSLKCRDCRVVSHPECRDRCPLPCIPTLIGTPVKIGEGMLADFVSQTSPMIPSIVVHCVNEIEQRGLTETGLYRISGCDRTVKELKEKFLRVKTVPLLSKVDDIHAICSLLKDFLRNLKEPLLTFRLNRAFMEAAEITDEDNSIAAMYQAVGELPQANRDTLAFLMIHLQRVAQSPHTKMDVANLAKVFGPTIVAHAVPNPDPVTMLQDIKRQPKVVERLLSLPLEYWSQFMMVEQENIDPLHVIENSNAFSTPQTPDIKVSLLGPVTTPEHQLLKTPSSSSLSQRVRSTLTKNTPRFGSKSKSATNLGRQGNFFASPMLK

[6] = NIH-3T3 fibroblast cytotoxicity, dose response, cytotoxicity control, cell-based, fluorescence, Alamar Blue, secondary assay (AID 2327); assay type: functional;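 further: NIH-3T3 mouse fibroblasts cultured with fluconazole at 8 µg/mL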
[7] = test system: Streptococcus sp. 'group A'; assay: growth inhibition of control SK(-) GAS strain, dose response, counter-screen for streptokinase expression inhibitor project, luminescence, kanamycin, BacTiterGlo, confirmation (AID 1900); assay type: functional, organism-based
[8] = target: T4, Streptokinase A (Streptococcus pyogenes serotype M1, UniProt P10520); assay: S. pyogenes streptokinase expression inhibitors, potency, dose response, plasminogen activation absorbance, OD405 (AID 1914); assay type: functional, Streptococcus pyogenes M1 GAS;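 further: secreted streptokinase activity via plasminogen activation per viability signal from cell pellet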
T4 sequence (P10520 whole entry): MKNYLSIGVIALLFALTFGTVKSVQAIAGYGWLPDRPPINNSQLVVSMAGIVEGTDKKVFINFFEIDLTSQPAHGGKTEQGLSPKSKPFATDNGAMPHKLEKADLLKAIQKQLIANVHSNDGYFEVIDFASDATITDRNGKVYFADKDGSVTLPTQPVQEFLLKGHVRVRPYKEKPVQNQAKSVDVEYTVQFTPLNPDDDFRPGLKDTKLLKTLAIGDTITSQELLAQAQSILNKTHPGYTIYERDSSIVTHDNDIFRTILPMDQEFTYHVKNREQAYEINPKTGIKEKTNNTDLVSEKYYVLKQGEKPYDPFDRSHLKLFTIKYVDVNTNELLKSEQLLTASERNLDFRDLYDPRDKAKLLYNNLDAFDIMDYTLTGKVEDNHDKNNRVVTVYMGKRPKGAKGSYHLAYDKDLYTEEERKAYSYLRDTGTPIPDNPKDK

[9] = C. albicans growth with fluconazole, confirmation, fluorescence, retest (AID 2467); assay type: functional, cell-based
[10] = test system: Streptococcus; assay: Group A Streptococcus viability loss, dose response, counter-screen for streptokinase expression inhibitor project, luminescence, BacTiterGlo (AID 1915); assay type: functional, organism-based;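 further: potency for reduction of bacterial viability or growth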
[11] = target: T5, Ubiquitin-conjugating enzyme E2 N (Homo sapiens, UniProt P61088); assay type: functional;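 further: Dose-response confirmation in a TR-FRET assay detecting UBC13-driven polyubiquitin chain formation, inhibition measured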
T5 sequence (P61088 whole entry): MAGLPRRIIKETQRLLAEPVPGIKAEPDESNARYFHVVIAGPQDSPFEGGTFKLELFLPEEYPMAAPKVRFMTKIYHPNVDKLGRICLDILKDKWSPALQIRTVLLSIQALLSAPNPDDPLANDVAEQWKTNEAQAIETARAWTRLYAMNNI

[12] = target: T6, Heat shock factor protein 1 (Mus musculus, UniProt P38532); assay: HSF1 potentiators in luciferase reporter cells, confirmation, cell-based, NIH3T3, luminescence, dose retest (AID 435004); assay type: functional;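 further: stress induced by proteasome inhibitor MG132 added 30 min after compound; luciferase reporter driven by HSF1 response element in NIH3T3 cells; actives raise luminescence as potentiators of the MG132 stress response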
T6 sequence (P38532 whole entry): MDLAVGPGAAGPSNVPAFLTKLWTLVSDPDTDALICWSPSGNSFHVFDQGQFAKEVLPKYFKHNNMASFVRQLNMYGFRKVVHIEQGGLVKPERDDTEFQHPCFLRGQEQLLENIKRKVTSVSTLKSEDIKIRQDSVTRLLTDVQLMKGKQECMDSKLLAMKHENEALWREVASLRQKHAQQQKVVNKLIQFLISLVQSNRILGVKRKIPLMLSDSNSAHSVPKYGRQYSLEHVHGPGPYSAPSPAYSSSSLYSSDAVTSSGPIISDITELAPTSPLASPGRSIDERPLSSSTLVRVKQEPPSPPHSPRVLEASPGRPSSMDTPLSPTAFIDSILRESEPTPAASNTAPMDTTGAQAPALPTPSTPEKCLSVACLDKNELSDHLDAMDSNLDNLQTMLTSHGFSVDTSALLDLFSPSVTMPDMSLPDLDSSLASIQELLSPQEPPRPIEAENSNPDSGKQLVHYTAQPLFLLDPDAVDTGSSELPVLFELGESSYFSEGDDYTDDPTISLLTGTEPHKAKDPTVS

[13] = target: T7, Protein skinhead-1 (Caenorhabditis elegans, UniProt P34707); assay type: functional
T7 sequence (P34707 whole entry): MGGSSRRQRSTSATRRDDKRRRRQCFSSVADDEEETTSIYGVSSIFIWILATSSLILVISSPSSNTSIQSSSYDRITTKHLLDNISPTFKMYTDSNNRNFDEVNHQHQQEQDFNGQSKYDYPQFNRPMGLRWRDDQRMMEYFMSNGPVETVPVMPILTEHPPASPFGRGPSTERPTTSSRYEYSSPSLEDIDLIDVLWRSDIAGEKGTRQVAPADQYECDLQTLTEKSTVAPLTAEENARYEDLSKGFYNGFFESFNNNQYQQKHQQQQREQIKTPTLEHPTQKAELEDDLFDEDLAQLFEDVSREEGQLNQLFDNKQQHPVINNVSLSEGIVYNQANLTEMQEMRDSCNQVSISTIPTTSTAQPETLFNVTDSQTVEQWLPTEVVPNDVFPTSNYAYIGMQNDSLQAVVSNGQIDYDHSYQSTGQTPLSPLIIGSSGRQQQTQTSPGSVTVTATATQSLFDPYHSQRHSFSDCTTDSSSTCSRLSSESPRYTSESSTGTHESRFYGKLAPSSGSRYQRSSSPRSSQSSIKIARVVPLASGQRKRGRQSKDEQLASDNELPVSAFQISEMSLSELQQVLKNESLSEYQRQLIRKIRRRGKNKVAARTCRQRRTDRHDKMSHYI

Sequence of Nonstructural protein 1 (Q194T2 whole entry): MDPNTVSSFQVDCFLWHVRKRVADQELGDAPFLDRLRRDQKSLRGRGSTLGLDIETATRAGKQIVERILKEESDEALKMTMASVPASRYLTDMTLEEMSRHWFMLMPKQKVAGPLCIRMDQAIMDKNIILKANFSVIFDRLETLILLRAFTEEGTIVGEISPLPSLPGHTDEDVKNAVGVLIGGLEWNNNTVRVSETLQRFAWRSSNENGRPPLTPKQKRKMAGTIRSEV
Sequence of Cytochrome P450 3A4 (P08684 whole entry): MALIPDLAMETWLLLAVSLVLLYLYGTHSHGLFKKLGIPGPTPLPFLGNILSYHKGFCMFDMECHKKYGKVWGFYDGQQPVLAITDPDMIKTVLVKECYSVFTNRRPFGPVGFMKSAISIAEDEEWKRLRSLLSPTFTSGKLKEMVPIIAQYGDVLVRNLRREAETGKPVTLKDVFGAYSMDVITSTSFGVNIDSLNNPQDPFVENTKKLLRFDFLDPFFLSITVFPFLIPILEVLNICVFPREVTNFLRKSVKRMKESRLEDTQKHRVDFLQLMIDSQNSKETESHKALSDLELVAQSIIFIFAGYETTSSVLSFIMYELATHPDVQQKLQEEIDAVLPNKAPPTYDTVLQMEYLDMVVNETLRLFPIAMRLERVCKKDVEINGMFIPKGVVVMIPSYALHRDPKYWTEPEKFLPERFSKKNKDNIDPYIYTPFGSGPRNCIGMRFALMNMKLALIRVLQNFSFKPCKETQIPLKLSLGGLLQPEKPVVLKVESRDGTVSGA

Structure (SMILES)	AC50 [1]	EC50 [12]	also measured
O=[N+]([O-])c1ccc2cn[nH]c2c1	12.6 µM (inconclusive)		
CCc1nnc(N/N=C/c2cc(Br)c(O)cc2O)n1N			IC50 [2]: 6.41 µM (active); AC50 [3]: > 380 µM (inactive); EC50 [4]: 9.31 µM (active); IC50 [5]: 66.2 µM (active)
Cc1ncc(CO)c(/C=N/NC(=S)Nc2ccc(Cl)c(Cl)c2)c1O			EC50 [6]: 45.4 µM (inconclusive); EC50 [7]: 4.1 µM (active); EC50 [8]: > 150 µM (not active); EC50 [9]: > 38 µM (not active); EC50 [10]: 91.4 µM (active); IC50 [11]: > 20 µM (inactive)
c1ccc(-c2ccc(SCc3cccnc3)nn2)nc1			IC50 [2]: 5.07 µM (active)
CC1(C)CC(CCN)(Cc2ccccc2Cl)CCO1 (centres undefined)		> 260 µM (inactive)	
Nc1nnnn1CC(=O)N/N=C/c1ccccn1		> 260 µM (inactive)	
Cc1cc(=O)oc2cc(O)c(O)cc12 [4-METHYLESCULETIN]	15.8 µM (inconclusive)		
C[C@]12CCC(=O)C[C@@H]1CC[C@@H]1[C@@H]2CC[C@]2(C)[C@@H](O)CC[C@@H]12 [STANOLONE]	15.8 µM (inconclusive)		
CN(Cc1cccc2cnccc12)C(=O)c1cc(COc2ccc(F)cc2F)on1		> 260 µM (inactive)	
COc1cc(OC)c2c(c1C(CCN1CCOCC1)c1ccc(N(C)C)cc1)OC(=O)CC2c1ccc(N(C)C)cc1 (centres undefined)			IC50 [2]: 14.5 µM (active)
COc1cc(/C=N/Nc2snc(SC)c2C#N)ccc1O		> 260 µM (inactive)	
O=C(COC(=O)c1ccc(S(=O)(=O)NCc2ccco2)cc1)Nc1ccccc1OC(F)F		> 260 µM (inactive)	
Cc1ccc(Cl)cc1N	31.6 µM (inconclusive)		
Cc1cc(OCC(=O)N(Cc2ccco2)C2CCS(=O)(=O)C2)cc(C)c1Cl (centres undefined)		> 260 µM (inactive)	
O=C(COC(=O)/C=C/c1cccc([N+](=O)[O-])c1)NCc1ccco1		> 260 µM (inactive)	
Cc1ccc(N)cc1[N+](=O)[O-]	31.6 µM (inconclusive)		
Nc1cccc2c1C(=O)c1ccc(Cl)cc1C2=O			IC50 [2]: 24.6 µM (active); IC50 [13]: > 100 µM (inactive)
Cc1ccc(C)c(S(=O)(=O)N2CCCCC2CCNC(=O)C(=O)NCCc2ccco2)c1 (centres undefined)		> 260 µM (inactive)	
Nc1cc([N+](=O)[O-])ccc1C(=O)O	10 µM (inconclusive)		
COCCNC(=O)[C@@]1(Cc2ccccc2)C=C[C@@H](C)N1C(C)=O	20 µM (inconclusive)		
CC1=C(/C=C/C(C)=C/C=C/C(C)=C/CO)C(C)(C)CCC1 [RETINOL]	15.8 µM (inconclusive)		
Nc1cc(Cl)cc(Cl)c1	31.6 µM (inconclusive)		
COc1ccc(C(CCNCc2ccc(N(C)C)cc2)C(C)C)cc1 (centres undefined)			IC50 [2]: 39.1 µM (active)
CCOc1cccc(/C=N/NC(=S)NCCN2CCOCC2)c1O			IC50 [2]: 16.5 µM (active)
CC1Cc2c(COc3ccccc3)nc3c(c2CO1)CN(CCOc1ccccc1)CC3 (centres undefined)	3.98 µM (inconclusive)		
